Read-outs that look alike come from different tables or passages of the source.
Legend:
[1] = tested on: A549; test: cells; format: cell-based, human; settings: for A549 SI: selectivity index = IC50 BALB/3T3 / IC50 A549
Source text: (§1) The A549 and MCF7 cell lines were purchased from the European Collection of Authenticated Cell Cultures (ECACC, Salisbury, U.K., 86012804 and 86012803). The LoVo cell line was purchased from the American Type Culture Collection (CCL-229, ATCC, Manassas, VA), and LoVo/DX by courtesy of Prof. E. Borowski (Technical University of Gdańsk, Gdańsk, Poland). The BALB/3T3 cell line was purchased from the American Type Culture Collection (CCL-163, ATCC, Manassas, VA). All of the cell lines are maintained in the Institute of Immunology and Experimental Therapy (IIET), Wroclaw, Poland.
(§2) A549 cells were cultured in a mixture of OptiMEM and Roswell Park Memorial Institute (RPMI) 1640 (1:1) medium (IIET, Wroclaw, Poland), supplemented with 10% fetal bovine serum HyClone (GE Healthcare) and 2 mM L-glutamine (Sigma-Aldrich, Germany). MCF7 cells were cultured in a mixture of Eagle’s medium (IIET, Wroclaw, Poland), supplemented with 10% fetal bovine serum, 2 mM L-glutamine, and insulin (Sigma-Aldrich, Germany). LoVo and LoVo/DX cells were cultured in F12K medium (Corning), supplemented with 10% fetal bovine serum HyClone (GE Healthcare) and 0.1 μg/mL doxorubicin (Accord) for LoVo/DX. BALB/3T3 fibroblasts were cultured in Dulbecco’s medium (Gibco), supplemented with 10% fetal bovine serum (GE Healthcare) and 2 mM L-glutamine (Sigma-Aldrich, Germany). All culture media contained antibiotics: 100 U/mL penicillin (Polfa-Tarchomin, Poland) and 0.1 mg/mL streptomycin (Sigma-Aldrich, Germany). All cell lines were cultured during entire experiment in humid atmosphere at 37 °C and 5% CO2.
(§3) All cell lines were exposed to each tested agent at different concentrations in the range 100–0.00001 μg/mL for 72 h. The cells were also exposed to the reference drug cisplatin (Teva Pharmaceuticals, Poland) and doxorubicin (Accord Healthcare Limited, U.K.). Additionally, all cell lines were exposed to dimethyl sulfoxide (DMSO) (solvent used for tested compounds) (POCh, Poland) at concentrations corresponding to those present in tested agents dilutions. After 72 h, sulforhodamine B (SRB) assay was performed.[57]
(§4) After 72 h of incubation with the tested compounds, the cells were fixed in situ by gently adding cold 50% trichloroacetic acid (TCA) (POCh, Poland) and were incubated at room temperature for 1 h. Then, the wells were washed four times with water and air-dried. Next, 0.1% solution of sulforhodamine B (Sigma-Aldrich, Germany) in 1% acetic acid (POCh, Poland) was added to each well and the plates were incubated at room temperature for 0.5 h. After incubation time, unbound dye was removed by washing plates four times with 1% acetic acid, whereas stain bound to cells was solubilized with 10 mM Tris base (Sigma-Aldrich, Germany). Absorbance of each solution was read at Synergy H4 Hybrid Multi-Mode Microplate Reader (BioTek Instruments) at the 540 nm wavelength.
(§5) IC50 values were calculated in Excel sheet using formulas adapted by Mateusz Psurski fromCheburator 0.4, Dmitry Nevozhay software (version 1.2.0 software by Dmitry Nevozhay, 2004–2014, http://www.cheburator.nevozhay.com, freely available) for each experiment.[58] Compounds at each concentration were tested in triplicate in a single experiment, and each experiment was repeated at least three times independently.

[2] = tested on: LoVo/DX; test: cells; format: cell-based, human; settings: for LoVo/DX RI: resistance index = IC50 LoVo/DX / IC50 LoVo; for LoVo/DX SI: selectivity index = IC50 BALB/3T3 / IC50 LoVo/DX
Source text: as §1, §2, §3, §4, §5

[3] = tested on: LoVo; test: cells; format: cell-based, human; settings: for LoVo SI: selectivity index = IC50 BALB/3T3 / IC50 LoVo
Source text: as §1, §2, §3, §4, §5

[4] = tested on: MCF-7; test: cells; format: cell-based, human; settings: for MCF-7 SI: selectivity index = IC50 BALB/3T3 / IC50 MCF-7
Source text: as §1, §2, §3, §4, §5

[5] = tested on: BALB/3T3; test: In vitro antiproliferative activity, SRB assay, normal fibroblasts BALB/3T3; format: cell-based; settings: 72 h, mean ± SD
Source text: as §1, §2, §3, §4, §5

[6] = Homo sapiens, A549, 72 h, read-out: A549 IC50 (nM), 72 h exposure, SRB, mean ± SD
[7] = Homo sapiens, LoVo/DX, 72 h, read-out: LoVo/DX IC50 (nM), 72 h exposure, SRB, mean ± SD
[8] = Homo sapiens, LoVo, 72 h, read-out: LoVo IC50 (nM)
[9] = Homo sapiens, MCF7, 72 h, read-out: MCF-7 IC50 (nM)
[10] = Mus musculus, BALB/3T3, normal murine embryonic fibroblasts

SMILES	IC50 [1, 6]	A549 SI [1]	IC50 [2, 7]	LoVo/DX RI [2]	LoVo/DX SI [2]	IC50 [3, 8]	LoVo SI [3]	IC50 [4, 9]	MCF-7 SI [4]	IC50 [5, 10]	further results
CNc1ccc2c(cc1=O)[C@@H](n1cc(C3(O)CCCCC3)nn1)CCc1cc(OC)c(OC)c(OC)c1-2 [Compound 13]	94 ± 30 nM	1.1	1700 ± 160 nM	26	0.1	65 ± 33 nM	1.5	88 ± 50 nM	1.1	100 ± 33 nM	
CNc1ccc2c(cc1=O)[C@@H](n1nnc(C(=O)O)c1C(=O)O)CCc1cc(OC)c(OC)c(OC)c1-2 [Compound 23]	1000 ± 240 nM	1.2	2900 ± 390 nM	3.4	0.4	860 ± 190 nM	1.4	990 ± 82 nM	1.2	1200 ± 14 nM	
COc1cccc2c1C(=O)c1c(O)c3c(c(O)c1C2=O)C[C@@](O)(C(=O)CO)C[C@@H]3O[C@H]1C[C@H](N)[C@H](O)[C@H](C)O1 [doxorubicin, reference compound]		0.1		110	<0.1		0.2		0.1	12 ± 2.3 nM	IC50 ([1]; Homo sapiens, A549, 72 h exposure, SRB, mean ± SD, read-out: A549 IC50): 120 ± 100 nM; IC50 ([2]; Homo sapiens, LoVo/DX, 72 h exposure, SRB, mean ± SD, read-out: LoVo/DX IC50): 5800 ± 2200 nM; IC50 ([3]; Homo sapiens, LoVo, 72 h exposure, SRB, mean ± SD, read-out: LoVo IC50): 52 ± 13 nM; IC50 ([4]; Homo sapiens, MCF7, 72 h exposure, SRB, mean ± SD, read-out: MCF-7 IC50): 82 ± 31 nM
CNc1ccc2c(cc1=O)[C@@H](n1cc(COC(=O)CCC(F)(F)F)nn1)CCc1cc(OC)c(OC)c(OC)c1-2 [Compound 25]	1.3 ± 0.2 nM	5.2	350 ± 56 nM	160	<0.1	2.2 ± 1.2 nM	3.0	1.1 ± 0.4 nM	6.1	6.7 ± 2.4 nM	
CNc1ccc2c(cc1=O)[C@@H](n1cc(CNC(=O)OCC(Cl)(Cl)Cl)nn1)CCc1cc(OC)c(OC)c(OC)c1-2 [Compound 42]	1.2 to 1.9 nM	1.4	470 ± 300 nM	120	<0.1	3.8 ± 4.2 nM	0.7	2.5 ± 1.8 nM	1.1	2.7 ± 2.4 nM	IC50 ([1]; read-out: A549 IC50, 72 h exposure, SRB, mean ± SD): 1.9 ± 2.9 nM
CNc1ccc2c(cc1=O)[C@@H](n1cc(COC(=O)c3ccncc3)nn1)CCc1cc(OC)c(OC)c(OC)c1-2 [Compound 28]	9.5 ± 2.9 nM	1.3	1000 ± 94 nM	130	<0.1	7.9 ± 3.3 nM	1.5	3.9 ± 1.1 nM	3.1	12 ± 1.1 nM	
CNc1ccc2c(cc1=O)[C@@H](n1cc(-c3ccc(Cl)cc3)nn1)CCc1cc(OC)c(OC)c(OC)c1-2 [Compound 15]	39 ± 2.7 nM	2.4	150 ± 35 nM	3.2	0.6	47 ± 22 nM	2.0	35 ± 14 nM	2.6	92 ± 20 nM	
CCOC(=O)NCc1cn([C@H]2CCc3cc(OC)c(OC)c(OC)c3-c3ccc(NC)c(=O)cc32)nn1 [Compound 38]	4.8 ± 0.7 nM	2.5	840 ± 95 nM	110	<0.1	7.7 ± 2.9 nM	1.6	4.2 ± 0.7 nM	2.9	12 ± 1.6 nM	
N.N.[Cl][Pt][Cl] [cisplatin, reference compound]		0.9		0.7	1.1		0.8		0.8		IC50 ([1]; 72 h exposure, SRB, mean ± SD, read-out: A549 IC50): 3500 ± 630 nM; IC50 ([2]; 72 h exposure, SRB, mean ± SD, read-out: LoVo/DX IC50): 3000 ± 800 nM; IC50 ([3]; 72 h exposure, SRB, mean ± SD, read-out: LoVo IC50): 4100 ± 860 nM; IC50 ([4]; 72 h exposure, SRB, mean ± SD, read-out: MCF-7 IC50): 4400 ± 1200 nM; IC50 ([5]; normal murine embryonic fibroblasts): 3300 ± 970 nM
CNc1ccc2c(cc1=O)[C@@H](n1cc(COCc3ccccc3)nn1)CCc1cc(OC)c(OC)c(OC)c1-2 [Compound 17]	6.9 ± 5.3 nM	1.6	84 ± 42 nM	15	0.1	5.7 ± 4.9 nM	1.9	6.1 ± 4.8 nM	1.8	11 ± 7.8 nM	
CNc1ccc2c(cc1=O)[C@@H](n1cc(CNC(=O)CCC(F)(F)F)nn1)CCc1cc(OC)c(OC)c(OC)c1-2 [Compound 33]	11 ± 0.1 nM	2.5	3000 ± 800 nM	270	<0.1	11 ± 5.5 nM	2.5	9.7 ± 3.4 nM	2.8	27 ± 8.7 nM	
CNc1ccc2c(cc1=O)[C@@H](n1cc(COC(=O)CCNC(=O)OC(C)(C)C)nn1)CCc1cc(OC)c(OC)c(OC)c1-2 [Compound 26]	2.4 ± 0.7 nM	2.7	700 ± 120 nM	240	<0.1	2.9 ± 1.2 nM	2.2	1.1 ± 0.1 nM	5.8	6.4 ± 1.4 nM	
CNc1ccc2c(cc1=O)[C@@H](n1cc(-c3ccccn3)nn1)CCc1cc(OC)c(OC)c(OC)c1-2 [Compound 16]	35 ± 10 nM	1.2	210 ± 65 nM	7.8	0.2	27 ± 14 nM	1.5	28 ± 12 nM	1.5	41 ± 4 nM	
CNc1ccc2c(cc1=O)[C@@H](n1cc(CNC(=O)OC(C)(C)C)nn1)CCc1cc(OC)c(OC)c(OC)c1-2 [Compound 41]	5.4 ± 1.5 nM	2.0	570 ± 120 nM	110	<0.1	5.1 ± 0.3 nM	2.2	3.2 ± 0.6 nM	3.4	11 ± 0.8 nM	
CNc1ccc2c(cc1=O)[C@@H](n1cc(CNC(=O)C(C)C)nn1)CCc1cc(OC)c(OC)c(OC)c1-2 [Compound 29]	12 ± 2.4 nM	4.0	2700 ± 600 nM	190	<0.1	14 ± 2.3 nM	3.4	12 ± 3.2 nM	4.0	48 ± 14 nM	
CNc1ccc2c(cc1=O)[C@@H](n1cc(COC(=O)c3ccccc3Cl)nn1)CCc1cc(OC)c(OC)c(OC)c1-2 [Compound 27]	2.9 ± 0.6 nM	3.0	< 100 nM	19	0.1	4.7 ± 1.7 nM	1.9	2.4 ± 0.8 nM	3.6	8.7 ± 2 nM	IC50 ([2]; read-out: LoVo/DX IC50, 72 h exposure, SRB, mean ± SD): 89 ± 18 nM

Reference: article PMC8515607 (ACS Omega, 2021)
